Results published in patent US8551937B2, “Peptide having an extending action for half-life of object peptide in plasma” (priority 2008, dated 2013).
Where a SMILES comes first, the peptide text is derived from it. Bridges are numbered along the chain shown (N, C = ends).

Experiment: in vivo
Conditions: rat; for AUC(0-inf) / C0 / half-life / Cmax / Tmax: male, SD, 0.1 mg/kg
Description: Changes in ANP immunoreactivity concentration in plasma when a native ANP and a chimeric peptide (chimeric ANP) to which a half-life-extension peptide was bestowed were administered into vein of rats were investigated.
As a test system, male rats of an SD strain of 7 weeks age (provided from Nippon Charles River) were subjected to the experiment where one group comprised three rats. […] At that time, a rabbit polyclonal antibody (#8) recognizing a ring part of ANP was used as an antibody and ^125I-[Tyr^28] α-hANP was used as a labeling compound.
Pharmacokinetic parameters were calculated from the resulting changes in immunoreactivity concentrations in plasma. At that time, WinNonlin Professional Ver. 4.0.1 (manufactured by Pharsight Corporation, U.S.A.) was used as the analytical software. Method for the calculation of each parameter is mentioned as follows.
Concentration at time 0 (C0; extrapolated value, ng/mL), area under the curve for concentration in plasma vs. time (AUC; ng.min/mL) and quenching half-life (T½; minute(s)) were calculated as follows. C0 was calculated as a value at time by means of extrapolation from the changes in immunoreactivity concentration in plasma at each blood collection period. AUC was calculated by a trapezoidal method using the immunoreactivity concentrations in plasma at all measuring points (t) and an extrapolated value until the infinitive time was determined. T½ was calculated by means of a least-squares method from the inclination of a straight line connecting several points in a disappearing phase of the immunoreactivity concentration in plasma. In the case of a subcutaneous administration, C0 was not determined but the maximum concentration in plasma (Cmax; ng/mL) and the time reaching the maximum concentration in plasma (Tmax; min) were determined.

Row | Compound | AUC(0-inf) (iv) | C0 (iv) | half-life (iv) | AUC(0-inf) (sc) | Cmax (sc) | Tmax (sc) | half-life (sc) | concentration in plasma as compared with the native ANP (iv) | concentration in plasma as compared with the native ANP (sc)
1 | CC[C@H](C)[C@@H]1NC(=O)[C@H](CCCNC(=N)N)NC(=O)[C@H](CC(=O)O)NC(=O)[C@H](CCSC)NC(=O)[C@H](CCCNC(=N)N)NC(=O)CNC(=O)CNC(=O)[C@H](Cc2ccccc2)NC(=O)[C@@H](N)CSSC[C@@H](C(=O)N[C@@H](CC(N)=O)C(=O)N[C@@H](CO)C(=O)N[C@@H](Cc2ccccc2)C(=O)N[C@@H](CCCNC(=N)N)C(=O)N[C@@H](Cc2ccc(O)cc2)C(=O)N[C@H](C(=O)N[C@@H](CCC(N)=O)C(=O)N[C@@H](CCC(N)=O)C(=O)N[C@@H](CCCNC(=N)N)C(=O)N[C@@H](CCCCN)C(=O)N[C@@H](CCC(=O)O)C(=O)N[C@@H](CO)C(=O)N[C@@H](CCCCN)C(=O)N[C@@H](CCCCN)C(=O)N2CCC[C@H]2C(=O)N2CCC[C@H]2C(=O)N[C@@H](C)C(=O)N[C@@H](CCCCN)C(=O)N[C@@H](CC(C)C)C(=O)N[C@@H](CCC(N)=O)C(=O)N2CCC[C@H]2C(=O)N[C@@H](CCCNC(=N)N)C(=O)O)C(C)C)NC(=O)CNC(=O)[C@H](CC(C)C)NC(=O)CNC(=O)[C@H](CO)NC(=O)[C@H](CCC(N)=O)NC(=O)[C@H](C)NC(=O)CNC1=O [Chimeric ANP (A)] (H-CFGGRMDRIGAQSGLGCNSFRYVQQRKESKKPPAKLQPR-OH; disulfide 1-17; N-terminus and C-terminus assumed) | 196 ng·h/mL | 1240 ± 71 ng/mL | 24 ± 2.5 min | 34 ng·h/mL | 63.3 ± 31.8 ng/mL | 5 min | 46.4 ± 8 min | rising concentration in plasma | rising concentration in plasma
2 | CC[C@H](C)[C@@H]1NC(=O)[C@H](CCCNC(=N)N)NC(=O)[C@H](CC(=O)O)NC(=O)[C@H](CCSC)NC(=O)[C@H](CCCNC(=N)N)NC(=O)CNC(=O)CNC(=O)[C@H](Cc2ccccc2)NC(=O)[C@@H](NC(=O)[C@H](CCCNC(=N)N)NC(=O)[C@@H]2CCCN2C(=O)[C@H](CCC(N)=O)NC(=O)[C@H](CC(C)C)NC(=O)[C@H](CCCCN)NC(=O)[C@H](C)NC(=O)[C@@H]2CCCN2C(=O)[C@@H]2CCCN2C(=O)[C@H](CCCCN)NC(=O)[C@H](CCCCN)NC(=O)[C@H](CO)NC(=O)[C@H](CCC(=O)O)NC(=O)[C@H](CCCCN)NC(=O)[C@H](CCCNC(=N)N)NC(=O)[C@H](CCC(N)=O)NC(=O)[C@H](CCC(N)=O)NC(=O)[C@@H](N)C(C)C)CSSC[C@@H](C(=O)N[C@@H](CC(N)=O)C(=O)N[C@@H](CO)C(=O)N[C@@H](Cc2ccccc2)C(=O)N[C@@H](CCCNC(=N)N)C(=O)N[C@@H](Cc2ccc(O)cc2)C(=O)O)NC(=O)CNC(=O)[C@H](CC(C)C)NC(=O)CNC(=O)[C@H](CO)NC(=O)[C@H](CCC(N)=O)NC(=O)[C@H](C)NC(=O)CNC1=O [Chimeric ANP (B)] (H-VQQRKESKKPPAKLQPRCFGGRMDRIGAQSGLGCNSFRY-OH; disulfide 18-34; N-terminus and C-terminus assumed) | 175 ng·h/mL | 1570 ± 361 ng/mL | 40 ± 12.4 min | 66.4 ng·h/mL | 64.5 ± 40.7 ng/mL | 16.7 min | 57.3 ± 7.1 min | rising concentration in plasma | rising concentration in plasma
